Consider eleven molecules from article PMC7115498 (European Journal of Medicinal Chemistry, 2009).

Values after ≈ are worked out from the molar mass of the structure shown. Like-named read-outs stand apart in the source and are kept apart here.

Data set [1] deals with Gram-positive cocci and Gram-negative bacilli. As to the kind of experiment: Antibacterial activity over all strains tested. The conditions noted are these: in vitro. The data set is classed as cell-based.
A further data set concerns Parainfluenza-3 virus. As to the kind of experiment: organism not typed. It is filed as cell-based. The conditions noted are these: Vero.
For another data set, the system named is Reovirus-1. The experiment in a line: organism not typed. It is filed as cell-based. The following applies: Vero.
Another data set has as its system Coxsakie virus B4. The experiment in a line: organism not typed. The following applies: Vero. It is filed as cell-based.
A short description of data set [2]: Partition coefficient by stir-flask method, octanol-water system. The conditions noted are these: octanol / 0.1 NaOH solution, 25 °C, UV.
For data set [3], the system named is Herpes simplex virus-1TK- KOS ACV. The experiment in a line: organism not typed. The data set is classed as cell-based. The following applies: HEL.
In the next data set the test system is HIV-1 IIIB strain. The data set is classed as cell-based. The following applies: for IC50: MTT method, Exp_nr P3.4401 and P3.4406. (In general: Tetrazolium dyes change colour on reduction, which living cells bring about.)
Another data set concerns HIV-1 ROD strain. It is filed as cell-based. The following applies: for IC50: MTT method, Exp_nr P3.4402 and P3.4407.
The next data set relates to MT-4 cells. The conditions noted are these: MTT method.
The nature of data set [4]: in vitro. The following applies: human, CC50, MT-4 cells, MTT method; IIIB experiments P3.4401 and P3.4406.
In a further data set the test system is HPV. The following applies: ref Singh et al. unpublished results; cited from earlier work.
A further data set concerns E. coli. As to the kind of experiment: Antibacterial microdilution broth susceptibility test. It is filed as cell-based, Escherichia coli. The conditions noted are these: 24 h, Gram-negative E. coli, 37 °C, no turbidity.
For a further data set, the system named is S. viridans. The description is as above. The data set is classed as cell-based, Streptococcus viridans. The conditions noted are these: Gram-positive S. viridans; 37 °C, 24 h, no turbidity.
For the next data set, the system named is K. pneumoniae. The description is as above. It is filed as cell-based, Klebsiella pneumoniae. The following applies: Gram-negative K. pneumoniae; 37 °C, 24 h, no turbidity.
A further data set deals with P. miraleilis. The description is as above. The data set is classed as cell-based, Proteus mirabeilis. The following applies: Gram-negative P. miraleilis; 37 °C, 24 h, no turbidity.
The nature of data set [5]: in vitro. The following applies: African green monkey, CC50, Vero cells, MTS assay.
Data set [6] concerns Feline corona virus (FIPV). The data set is classed as cell-based. The conditions noted are these: virus N, CRFK cells, MTS assay.
The next data set has as its system Feline herpes virus. It is filed as cell-based. The following applies: virus O, CRFK cells, MTS assay.
In a further data set the test system is CRFK cells. The following applies: MTS assay.
The mark [7] stands for this setting: ROD experiments P3.4402 and P3.4407.

By EC50 is commonly meant the midpoint of the concentration-response curve. A low value points to a more potent agent. A word on the IC50: it is the point on the concentration scale where inhibition reaches its midpoint. Read a high IC50 as weaker potency. One may read the CC50 as the concentration at which the toxic effect on the cells reaches its halfway point. The low end stands for greater toxicity to the cells, the high end for lower toxicity to the cells. Usually MIC stands for the lowest concentration that inhibits growth of the organism. Higher therefore signals weaker potency.

On to `COc1cc(/C=C/C(=O)CC(=O)/C=C/c2ccc(O)c(OC)c2)ccc1O` [Curcumin, 1,7-bis(4-hydroxy-3-methoxyphenyl)-1,6-heptadiene-3,5-dione, reference compound], for which the “MIC range over all strains” value in [1] was 1.23 to 2.47 µM. Further, the EC50 in the data set with Parainfluenza-3 virus, in the data set on Reovirus-1 and with Coxsakie virus B4 was above 10 nM throughout. In addition, the “P (partition coefficient), stir-flask method” value (shortened to “P (partition coefficient)”) in [2] is 1.70 × 10^2.

Consider `Nc1ncnc2c1ncn2C[C@H](O)CO` [(S)-DHPA, reference compound], for which the EC50 with Parainfluenza-3 virus, in the data set on Reovirus-1 and with Coxsakie virus B4 was above 250000 nM each time.

Consider `COc1cc(/C=C/C(=O)CC(=O)/C=C/c2ccc(OC(=O)[C@H](Cc3ccccc3)NC(=O)[C@@H](N)Cc3c[nH]c4ccccc34)c(OC)c2)ccc1OC(=O)[C@H](Cc1ccccc1)NC(=O)[C@@H](N)Cc1c[nH]c2ccccc12` [Compound 2, 1,7-Bis-[(4,4-di-O-tryptophanylphenylalanine)3-methoxyphenyl]-1,6-heptadiene-3,5-dione], for which the EC50 is above 38 nM in [3], above 38 nM in the data set on Parainfluenza-3 virus, above 19 nM in the data set on Reovirus-1 and above 19 nM in the data set with Coxsakie virus B4. In addition, the “SI (Selectivity index: CC50/IC50 ratio)” value in the data set on HIV-1 IIIB strain and in the data set on HIV-1 ROD strain was below 1 throughout. The IC50 in the data set on HIV-1 IIIB strain (HIV-1 IIIB, MT-4 cells) is above 93 nM; in the data set with HIV-1 ROD strain (HIV-1 ROD, MT-4 cells), above 103 nM. The figures for the half-maximal cytotoxic concentration (CC50) in the data set on MT-4 cells (setting [7]) and in “in vitro [4]” were 103 nM and 94 nM, respectively. Further, in data set [2], the “P (partition coefficient)” value is 5.50 × 10^2.

For the molecule `COc1cc(/C=C/C(=O)CC(=O)/C=C/c2ccc(OC(=O)CCC(NC(=O)c3ccc(NCc4cnc5nc(N)[nH]c(=O)c5n4)cc3)C(=O)O)c(OC)c2)ccc1OC(=O)CCC(NC(=O)c1ccc(NCc2cnc3nc(N)[nH]c(=O)c3n2)cc1)C(=O)O` (stereo not drawn) [Compound 6, 1,7-Bis-[(4,4-di-O-bis-(γ,γ)-folyl)3-methoxyphenyl]-1,6-heptadiene-3,5-dione], the EC50 (in data set [3]; in the data set on Parainfluenza-3 virus; in the data set with Reovirus-1; with Coxsakie virus B4) was above 82 nM each time. Further, the IC50 with HIV-1 IIIB strain (HIV-1 IIIB, MT-4 cells) is above 46 nM; in the data set with HIV-1 ROD strain (HIV-1 ROD, MT-4 cells), above 50 nM. In the data set on MT-4 cells (setting [7]), this molecule yielded a CC50 of 50 nM. In the data set on HPV, the “Activity against HPV causing cervical cancer” value is listed as “very active”.

In turn, `CCCCCCCCCCCCCCCC(=O)Oc1ccc(/C=C/C(=O)CC(=O)/C=C/c2ccc(OC(=O)CCCCCCCCCCCCCCC)c(OC)c2)cc1OC` [Compound 4, 1,7-Bis-[(4,4-di-O-pamitoyl)3-methoxyphenyl]-1,6-heptadiene-3,5-dione] came in with a minimal inhibitory concentration (MIC) against E. coli (Escherichia coli) of 0.591 µM (≈ 0.5 µg/mL).

Turning to `CCCCCCCCCC(=O)Oc1ccc(/C=C/C(=O)CC(=O)/C=C/c2ccc(OC(=O)CCCCCCCCC)c(OC)c2)cc1OC` [Compound 3, 1,7-Bis-[(4,4-di-O-decanoyl)3-methoxyphenyl]-1,6-heptadiene-3,5-dione], in the data set with E. coli (Escherichia coli), inhibition of growth (MIC) required 0.369 µM (≈ 0.25 µg/mL). Also, in [2], the “P (partition coefficient)” value is on record as 1.69 × 10^8.

Take `COc1cc(/C=C/C(=O)CC(=O)/C=C/c2ccc(OCCOC(=O)CCC(NC(=O)c3ccc(NCc4cnc5nc(N)[nH]c(=O)c5n4)cc3)C(=O)O)c(OC)c2)ccc1O` (stereo not drawn) [Compound 10, 1-(4-Hydroxy-3-methoxyphenyl)-7-(4-O-ethyl-O-folyl-3-methoxyphenyl)-1,6-heptadiene-3,5-dione]: the EC50 (in data set [3]; with Parainfluenza-3 virus; in the data set with Reovirus-1; with Coxsakie virus B4) was above 119 nM in each case. Besides, the “SI (Selectivity index: CC50/IC50 ratio)” value is below 1 with HIV-1 IIIB strain (HIV-1 IIIB, MT-4 cells) and below 1 in the data set on HIV-1 ROD strain (HIV-1 ROD, MT-4 cells). Further, the IC50 with HIV-1 IIIB strain (HIV-1 IIIB, MT-4 cells) is above 58 nM; in the data set with HIV-1 ROD strain (HIV-1 ROD, MT-4 cells), above 88 nM. Also, the CC50 in the data set on MT-4 cells (IIIB experiments P3.4401 and P3.4406) came out at 58 nM; in the data set on MT-4 cells (setting [7]) it was 88 nM.

With `COc1cc(/C=C/C(=O)C(CCOC(=O)CCC(NC(=O)c2ccc(NCc3cnc4nc(N)[nH]c(=O)c4n3)cc2)C(=O)O)C(=O)/C=C/c2ccc(O)c(OC)c2)ccc1O` (stereo not drawn) [Compound 8, 1,7-Bis-[(4-hydroxy-3-methoxyphenyl)]-1,6-heptadiene-C^4-ethyl-O-folyl-3,5-dione], the concentration giving a half-maximal response (EC50) (in data set [3]; in the data set with Parainfluenza-3 virus; in the data set on Reovirus-1; in the data set on Coxsakie virus B4) was above 11 nM each time. Moreover, in the data set with HIV-1 ROD strain (HIV-1 ROD, MT-4 cells), the IC50 is above 62 nM. Also, the CC50 in the data set with MT-4 cells (setting [7]) was 62 nM.

For Gentamycin sulfate, the MIC in the data set on S. viridans, in the data set with E. coli, against K. pneumoniae and in the data set on P. miraleilis was above 1.73 µM in each case.

Consider `NC(=O)c1ncn([C@@H]2O[C@H](CO)[C@@H](O)[C@H]2O)n1` [Ribavirin], for which the EC50 is 250000 nM in the data set on Reovirus-1 and above 250000 nM in the data set with Coxsakie virus B4. For the same molecule, the CC50 in “in vitro [5]” (column J (Reovirus-1)), in the data set “in vitro [5]” (column K (Sindbis virus)), in “in vitro [5]” (column L (Coxsakie virus B4)) and in “in vitro [5]” (column M (Punta toro virus)) was above 250000 nM in each case.

B1: UDA: reference in Table 2 (CRFK), not defined in the paper; presumably a plant lectin (protein, UniProt P11218 24-372, looked up)
Lectin/endochitinase 1: QRCGSQGGGGTCPALWCCSIWGWCGDSEPYCGRTCENKCWSGERSDHRCGAAVGNPPCGQDRCCSVHGWCGGGNDYCSGSKCQYRCSSSVRGPRVALSGNSTANSIGNVVVTEPLFDQMFSHRKDCPSQGFYSYHSFLVAAESFPAFGTIGDVATRKREVAAFLAHISQATSGERSDVENPHAWGLCHINTTTVTENDFCTSSDWPCAAGKKYSPRGPIQLTHNFNYGLAGQAIGEDLIQNPDLVEKDPIISFKTALWFWMSQHDNKPSCHDIVLNANSAANRIPNKGVIGNIISRAFGHDDFAVRSSSIGFYKRYCDMLGVSYGHDLKYWFDNTPSSEFQRIQMRVAA
For B1, the EC50 worked out at 1300 nM in data set [6] and 2900 nM in the data set with Feline herpes virus. In addition, the CC50 with CRFK cells (column N (Feline corona virus FIPV)) and in the data set with CRFK cells (column O (Feline herpes virus)) was above 100000 nM throughout.
